# According to US20240239821A1, “N-ACYL FOSMIDOMYCIN PRODRUG ANALOGS AS NOVEL ANTIINFECTIVE AGENTS” (THE GEORGE WASHINGTON UNIVERSITY, priority 2021, published 2024):
# pIC50: −log10 of the molar value. Where two headings read alike, the source gives them in different places.
# What was measured:
# P. falciparum DXR [1] = target: T1, P. falciparum DXR (Plasmodium falciparum, UniProt Q8IKG4); settings: background statement; cited from earlier work
# T1 construct: His6 (N); made in house; host or cells: Escherichia coli Rosetta2(DE3)
# T1 sequence (Q8IKG4 73-488): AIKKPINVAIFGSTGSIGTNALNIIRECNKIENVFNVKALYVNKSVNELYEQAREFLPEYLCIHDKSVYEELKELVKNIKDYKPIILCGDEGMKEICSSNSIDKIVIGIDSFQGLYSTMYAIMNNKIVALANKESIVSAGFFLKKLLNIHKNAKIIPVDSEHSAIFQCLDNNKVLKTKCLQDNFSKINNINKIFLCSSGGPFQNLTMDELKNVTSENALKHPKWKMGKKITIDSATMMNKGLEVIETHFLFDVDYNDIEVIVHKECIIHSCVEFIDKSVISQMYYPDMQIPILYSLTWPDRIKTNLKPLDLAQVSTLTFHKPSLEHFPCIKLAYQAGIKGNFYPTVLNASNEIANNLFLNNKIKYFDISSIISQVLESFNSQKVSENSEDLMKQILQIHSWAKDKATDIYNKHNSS
# P. falciparum DXR [2] = target: T1, P. falciparum DXR; experiment: Plasmodium falciparum DXR enzyme IC50; assay type: biochemical
# Method: Recombinant protein was expressed in Escherichia coli Rosetta2(DE3) cells obtained from Novagen (San Diego, CA). E. coli was cultured at 37° C. in Luria-Bertani (LB) media supplemented with 100 μg/mL ampicillin and 34 μg/ml chloramphenicol with constant shaking at 250 rpm. Agar (1.5% wt/vol) was added to prepare solid media.
# Cloning. Expression, and Purification of P falciparum DXR
# The P falciparum dxr gene was truncated to begin at Lys 75 to remove the apicoplast signaling sequence. A Pf 3D7 trophozoite cDNA library (MRA-297) was acquired from BEi resources and used as the template for amplification of the PIDXR gene. […] 3′ reverse and cloned into a pETl 00/D-TOPO vector to yield pPIDXR, facilitating the expression of an N-terminal His6-tagged protein.
# The expression plasmid (pPIDXR) was separately transformed into chemically competent E. coli Rosetta2(DE3) cells for protein expression. To express the His-tagged protein, a 10 mL overnight seed culture was added to IL of LB media and then incubated with shaking at 37° C. and 250 rpm. At an OD600 of 1.8, protein expression was induced with addition of isopropyl b-D-thiogalactopyranoside (IPTG) to 0.5 mM and the culture was further incubated with shaking at 37° C. and 250 rpm for an additional 18 hours. Cells were harvested via centrifugation (4648×g, 20 min, 4° C.) and stored at −80° C. Protein was subsequently isolated and purified from the cells via chemical lysis and affinity chromatography.
# Cells were lysed with lysis buffer A (100 mM Tris pH 8.0, 0.032% lysozyme, 3 mL per gram cell pellet), followed by lysis buffer B (0.1 M CaCh, 0.1 M MgCh, 0.1 M NaCl, 0.020% DNase, 0.3 mL per gram cell pellet).
# The column was washed with 20 column volumes of Ix equilibrium buffer (50 mM HEPES pH 7.5, 300 mM NaCl), 10 column volumes of Ix wash buffer (50 mM HEPES pH 7.5, 300 mM NaCl, 10 mM imidazole), and 15 column volumes of 2× wash buffer (100 mM HEPES pH 7.5, 600 mM NaCl, 20 mM imidazole). The protein was eluted with 5 column volumes of Ix elution buffer (150 mM imidazole pH 7.0, 300 mM NaCl). Buffer was exchanged with 0.1 M Tris pH 7.5, I mM NaCl, 5 mM DTT during concentration by ultrafiltration. Protein concentration was determined using Advanced Protein Assay Reagent (Cytoskeleton, Denver CO) with y-globulins (Sigma-Aldrich) as the standard. Purified protein was visualized via Coomassie stained SDS-PAGE.
# P falciparum strain 3D7 = experiment: microbe, parasite or virus in culture; assay type: cell-based, Plasmodium falciparum
# Method: P falciparum strain 3D7 (wild-type, WT) was obtained through MR4 as part of the BEi Resources Repository, NIAID, NIH (www.mr4.org). AP falciparum strain containing increased levels of MEP pathway metabolites, had]
# (MRA-1257), and its isogenic compliment, had]+ Pfl-Iadl-GFP (MRA-1258), were generated in strain 3D7, as reported (Guggisberg et al.). Parasites were cultured in a 2% suspension of human erythrocytes and RPMI 1640 (Sigma) medium supplemented with 27 mM sodium bicarbonate, 11 mM glucose, 5 mM HEPES, I mM sodium pyruvate, 0.37 mM hypoxanthine, 0.01 mM thymidine, 10 μg/mL gentamicin, and 0.5% Albumax (Gibco) at 37° C., 5% 02/5% CO2/90% N2 atmosphere.
# [3] = recombinant His-tagged enzyme, read-out: P. f. DXR IC50
# [4] = whole cell, read-out: P. f. IC50
# [5] = Plasmodium falciparum, 3D7, read-out: P. f. IC50
SMILES,pIC50 (P. falciparum DXR [2]; [3]),pIC50 (P falciparum strain 3D7; [4]),also measured
CC(=O)N(O)CCCP(=O)(O)O [FR900098],,,pIC50 (P. falciparum DXR [1]): 7.62
"O=C(c1ccncc1)N(O)C/C=C/P(=O)(O)O [Na/H, 4-pyridinyl]",6.28,5.19,
"O=C(c1cccc2ccccc12)N(O)C/C=C/P(=O)(O)O [Na/H, 1-naphthyl]",5.75,5.26,
"O=C(c1ccc(F)cc1)N(O)C/C=C/P(=O)(O)O [Na/H, 4-fluorophenyl]",7.39,6.92,
"O=C(c1cc(Cl)cc(Cl)c1)N(O)C/C=C/P(=O)(O)O [Na/H, 3,5-dichlorophenyl, Sodium hydrogen [(1E)-3-[1-(3,5-dichlorophenyl)—N-hydroxyformamido]prop-1-en-1-yl]phosphonate]",,,pIC50 (P. falciparum DXR [2]): 7.19; pIC50 (P falciparum strain 3D7; [5]): 6.77
"O=CN(O)C/C=C/P(=O)(OCOC(=O)c1ccccc1)OCOC(=O)c1ccccc1 [BOM, H]",,7.38,
"CC(=O)N(O)C/C=C/P(=O)(OCOC(=O)c1ccccc1)OCOC(=O)c1ccccc1 [BOM, CH3]",,7.96,
"O=C(c1ccc2ccccc2c1)N(O)C/C=C/P(=O)(O)O [Na/H, 2-naphthyl]",6.33,5.79,
"O=C(c1ccncc1)N(O)C/C=C/P(=O)(O)O [NH4,4-pyridinyl]",,5.27,
"CC(=O)N(O)C/C=C/P(=O)(OCOC(=O)C(C)(C)C)OCOC(=O)C(C)(C)C [POM, CH3]",,7.74,
"CC(C)(C)c1ccc(C(=O)N(O)C/C=C/P(=O)(O)O)cc1 [Na/H, 4-t-butylphenyl]",4.42,4.36,
"O=C(c1ccc(-c2ccccc2)cc1)N(O)C/C=C/P(=O)(O)O [Na/H, 4-biphenyl]",6.54,5.36,
"O=C(c1cccc(C(F)(F)F)c1)N(O)C/C=C/P(=O)(O)O [NH4,3-trifluoromethylphenyl]",7.31,,
"O=C(c1cc(Cl)cc(Cl)c1)N(O)C/C=C/P(=O)(O)O [NH4,3,5-dichlorophenyl]",,6.66,
"CC(C)(C)C(=O)OCOP(=O)(C/C=C/N(O)C(=O)c1ccccc1)OCOC(=O)C(C)(C)C [POM, phenyl, (E)-(((3-(N-hydroxybenzamido)allyl)phosphoryl)bis(oxy))bis(methylene)bis(2,2-dimethylpropanoate)]",,6.70,
"O=C(c1ccc(C(F)(F)F)cc1)N(O)C/C=C/P(=O)(O)O [Na/H, 4-trifluoromethylphenyl]",6.84,5.60,
"Cc1ccc(C(=O)N(O)C/C=C/P(=O)(O)O)cc1 [Na/H, 4-methylphenyl]",6.79,5.86,
"O=C(c1cccc(Cl)c1)N(O)C/C=C/P(=O)(O)O [NH4,3-chlorophenyl]",,6.94,
"O=C(c1cccc(C(F)(F)F)c1)N(O)C/C=C/P(=O)(O)O [Na/H, 3-trifluoromethylphenyl]",7.32,6.73,
"O=C(OCOP(=O)(/C=C/CN(O)C(=O)c1ccccc1)OCOC(=O)c1ccccc1)c1ccccc1 [BOM, phenyl, [({[(E)-benzoyloxy]methoxy}[(1E)-3-(N-hydroxy-1-phenylformamido)prop-1-en-1-yl]phosphoryl)oxy]methyl benzoate]",,6.53,
"COc1ccc(C(=O)N(O)C/C=C/P(=O)(O)O)cc1 [NH4,4-methoxyphenyl]",,6.20,
"O=C(c1ccc(F)cc1)N(O)C/C=C/P(=O)(O)O [NH4,4-fluorophenyl]",7.42,6.76,
"O=C(c1cccc(Cl)c1)N(O)C/C=C/P(=O)(O)O [Na/H, 3-chlorophenyl]",6.80,6.55,
"CC(C)(C)C(=O)OCOP(=O)(/C=C/CN(O)C=O)OCOC(=O)C(C)(C)C [POM, H]",,7.89,
"O=C(c1ccccc1)N(O)C/C=C/P(=O)(O)O [NH4, phenyl, Diammonium [(1E)-3-(N-hydroxy-1-phenylformamido)prop-1-en-1-yl]phosphonate]",,,pIC50 (P. falciparum DXR [2]): 7.09; pIC50 (P falciparum strain 3D7; [5]): 6.56
"O=C(c1ccc(Cl)c(Cl)c1)N(O)C/C=C/P(=O)(O)O [NH4,3,4-dichlorophenyl]",,6.89,
"O=C(c1cccc(F)c1)N(O)C/C=C/P(=O)(O)O [NH4,3-fluorophenyl]",,6.45,
